Experiments:
[1] = test system: CYP 1B1 (liver microsomes); assay: Inhibition of hepatic microsome-catalyzed CYP oxidation; type: in vitro ADME, human; conditions: CYP 1B1, substrate TFD008_1, liver microsomes
Experimental: Incubations were carried out in a total volume of 100 µl of 100 mM Tris-HCl buffer (pH 7.4) in all black, flat-bottom Costar 96-well plates (Corning Incorporated, Corning, NY, USA). […] The samples were then preincubated at 37 °C for 10 min. The reactions were initiated by the addition of NADPH, and 0–10 µM 7-hydroxycoumarin was used as the standard. The fluorescent signal was measured with a Victor^2 1420 multilabel plate counter (PerkinElmer Lifesciences Wallac, Turku, Finland) with excitation and emission wavelengths of 405 and 460 nm, respectively. Fluorescence was monitored every 2 min for 40 min from where the concentration was calculated at the various time points. From these, oxidation rates (µM/min) and the relative remaining activity of the sample at different concentrations were calculated. The data were fit to sigmoidal dose-response curves with nonlinear regression, and IC50 values (the concentration at which the sample reduced the metabolism of the CYP substrate by 50%) were determined. […] This was analyzed using nonlinear equations in Graph Pad Prism, which produced IC50 values and its 95% confidence interval as the results.

[2] = set-up: method as in Chen et al. (2012) [15]; conditions: DPPH in methanol; ref Chen et al. (2012) [15]; cited from earlier work
PBMCs = test system: PBMCs; set-up: method as in Sipahi et al. (2016) [21]; conditions: aqueous extract of verbascoside; ref Sipahi et al. (2016) [21]; read-out: PBMC cellular toxicity IC50; cited from earlier work
CYP 19A1 (aromatase) = molecular target: T1, CYP 19A1 (aromatase) (Homo sapiens, UniProt P11511); assay: Aromatase inhibition assay, tritiated water release, placental microsomes; type: in vitro ADME; conditions: CYP 19A1, substrate androstendione, verbascoside 4-500 µM
T1 construct: from tissue; host or cells: human placental microsomes
T1 sequence (P11511 1-503): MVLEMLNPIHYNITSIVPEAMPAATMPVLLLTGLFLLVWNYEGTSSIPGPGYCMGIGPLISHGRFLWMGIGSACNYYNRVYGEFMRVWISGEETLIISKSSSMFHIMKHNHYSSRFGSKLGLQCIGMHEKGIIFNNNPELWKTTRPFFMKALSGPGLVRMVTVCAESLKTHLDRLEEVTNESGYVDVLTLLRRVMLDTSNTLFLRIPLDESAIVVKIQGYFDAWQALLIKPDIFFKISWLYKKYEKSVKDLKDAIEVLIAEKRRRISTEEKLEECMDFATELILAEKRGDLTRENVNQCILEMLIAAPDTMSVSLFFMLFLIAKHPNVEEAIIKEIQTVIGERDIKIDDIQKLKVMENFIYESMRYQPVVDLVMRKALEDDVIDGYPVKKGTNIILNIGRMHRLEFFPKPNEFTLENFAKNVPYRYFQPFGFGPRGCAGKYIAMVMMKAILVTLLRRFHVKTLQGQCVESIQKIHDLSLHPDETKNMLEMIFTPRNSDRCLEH
Experimental: The relative remaining aromatase activity was calculated by measuring the tritiated water (^3H2O) formed from the aromatization of ^3H-Androst-4-ene,3,17-dione. […] Twenty percent NADPH regenerative system was added to initiate the reaction. Reactions were terminated by the addition of 33% trichloroacetic acid. The supernatant was investigated for tritiated water formed in a scintillation mixture (Optiphase Hisafe 2, Perkin Elmer) using a Wallac microbeta 1450 TriLux liquid scintillation and luminescence counter (PerkinElmer).

HepG2 cell line = test system: HepG2 cell line; set-up: method as in Etemad et al. (2015) [19]; conditions: after 24 and 72 h, highest concentration tested; ref Etemad et al. (2015) [19]; read-out: HepG2 cellular toxicity IC50; cited from earlier work
[3] = In vitro metabolism with human liver microsomes or cytosolic proteins and cofactors (UHPLC-QTOF-MS); type: in vitro ADME; conditions: for Level of verbascoside during incubation: 10 µM
Experimental: From the incubation mixture, 450 µL acetonitrile was added to 150 µL of the samples to stop the reaction at time points of 0, 10, 20, 40, and 60 min. The CYP incubation mixture contained 20% NADPH regenerating system, whereas the glucuronidation incubation mixture contained 0.5 mM UDP-glucuronic acid with 5 mM MgCl2. The sulfonation incubation mixture contained 10 µM PAPS, […], and 500 µg cytosolic protein instead of microsomes, and the methylation incubation mixture contained 0.5 mM S-adenosylmethionine, 5 mM MgCl2, and 500 µg cytosolic protein instead of microsomes. […] The hydrolysis reaction was studied with an incubation mixture that contained 400 µg microsomal protein, or 500 µg cytosolic proteins, and 5 mM MgCl2. A sample with the absence of any enzyme was considered as the blank sample. After stopping the reactions, the samples were centrifuged for 20 min at 10,000× g and stored at −80 °C for analysis by the UHPLC-QTOF-MS system (Agilent Technologies, Waldbronn, Karlsruhe, Germany), which consisted of a 1290 LC system, a Jetstream ESI source, and a 6540 UHD accurate mass quadrupole time-of-flight (QTOF) mass spectrometry. The sample tray was kept at 4 °C during these analyses. […] Two microliters of sample were injected onto a column (Zorbax Eclipse XDB-C8, 2.1 × 100mm, 1.8 µm, Agilent Technologies, Palo Alto, CA, USA) that was kept at 50 °C. Mobile phases, delivered at 0.4 mL/min, consisted of water (eluent A) and methanol (eluent B), both containing 0.1% (v/v) of formic acid. The gradient employed was as follows: 2%→100% B (0–10 min); 100% B (10–14.5 min); 100%→2% B (14.5–14.51 min); and 2% B (14.51–16.50 min).
A Jetstream ESI source, operated in negative ionization mode, used the following conditions: drying gas temperature 325 °C and a flow of 10 L/min, sheath gas temperature 350 °C and a flow of 11 L/min, nebulizer pressure 45 psi, capillary voltage 3500 V, nozzle voltage 1000 V, fragmentary voltage 100 V, and skimmer 45 V. Nitrogen was used as the instrument gas. For data acquisition, a 2 GHz extended dynamic range mode was used from m/z 20 to m/z 1600. Data were collected in the centroid mode at an acquisition rate of 1.67 spectra/s with an abundance threshold of 150. The TOF was calibrated on a daily basis and subsequently operated at a high accuracy (<2 ppm). Continuous mass axis calibration was performed by monitoring two reference ions from an infusion solution throughout the runs. The reference ions were m/z 112.985587 and m/z 966.000725. Identification of the metabolites found in the treatments was based on accurate mass and isotope information (i.e., ratios, abundances, and spacing). The software for the identification of metabolites used was MassHunter Metabolite ID B.04.00 (Agilent Technologies, Santa Clara, CA, USA).

For `C[C@@H]1O[C@@H](O[C@@H]2[C@@H](O)[C@H](OCCc3ccc(O)c(O)c3)O[C@H](CO)[C@H]2OC(=O)/C=C/c2ccc(O)c(O)c2)[C@H](O)[C@H](O)[C@H]1O` [Verbascoside], which “Microsomal IC50 (µM) with 95% Confidence Intervals” value [1] is on record?
The value was “No inhibition ^b”.

What about the IC50 [2] of the same compound?
Its IC50 is 11.4 µM.

And the IC50 (PBMCs)?
The IC50 was 384 µM.

And the “Microsomal IC50 (µM) with 95% Confidence Intervals” value (CYP 19A1 (aromatase))?
The value was “No inhibition”.

What about the “Microsomal IC50 (µM) with 95% Confidence Intervals” value (CYP 19A1 (aromatase); listed as verbascoside) of the same compound?
Its value is “did not inhibit”.

And the IC50 (HepG2 cell line)?
Its IC50 is > 400 µM.

And the “Level of verbascoside during incubation” value ([3]; human liver cytosolic protein, PAPS, up to 60 min)?
Its value is “decreased”.

What about the “Level of verbascoside during incubation” value ([3]; human liver cytosolic protein, S-adenosylmethionine, up to 60 min) of the same compound?
The value was “decreased”.

What about the “Level of verbascoside during incubation” value ([3]; human liver microsomes, NADPH oxidation incubation) of the same compound?
The value was “no decrease”.

What about the “Level of verbascoside during incubation” value ([3]; human liver microsomes, UDP-glucuronic acid, up to 60 min) of the same compound?
Its value is “decreased”.

And the “Level of verbascoside during incubation” value ([3]; hydrolysis incubation, microsomal or cytosolic protein without cofactor)?
The value was “no decrease”.

And the Metabolites formed ([3]; PAPS incubation, levels increased up to 20 min)?
Its Metabolites formed is “three different sulphate conjugates”.

And the Metabolites formed ([3]; S-adenosylmethionine incubation, levels increased up to 60 min)?
The Metabolites formed was “five different methylated conjugates”.

And the Metabolites formed ([3]; UDP-glucuronic acid incubation with human liver microsomes)?
The Metabolites formed was “No glucuronide conjugate”.

— PMC6600574 (Molecules, 2019)
